Results reported in patent publication USRE42890E1, “Furazanobenzimidazoles” (Basilea Pharmaceutica AG, priority 2003, dated 2011).

Legend:
Jurkat = assay: MTS proliferation assay, Jurkat; type: cell-based, human; settings: 72 h incubation, read-out: MTS proliferation assay IC 50 Jurkat
Description: (§1) Cell lines are cultured in RPMI-1640 tissue culture medium containing either 5% or 10% fetal calf serum, 0.05 mM 2-mercaptoethanol, 2 mM glutamine and penicillin/streptomycin 50 μg/ml (complete medium) (Sigma, Buchs, Switzerland). General growth conditions are 37° C. and 7.5% CO2.
(§2) The following human cell lines (either EGFP transfected or not) are being used: HeLa (ATCC: CCL-2), KB (ATCC: CCL-17), MCF7 (ATCC: HTB-22), SK-BR-3 (ATCC: HTB-30), SK-Mel 1 (ATCC: HTB-67), SK-Mel 28 (ATCC: HTB-72), PC-3 (ATCC: CRL-1435), SW 480 (ATCC: CCL-228), NCl-H460 (ATCC: HTB-177), NCl-H1792 (ATCC: CRL-5895), HT1080 (ATCC: CCL-21), Jurkat (ATCC: TIB-152), Ramos (ATCC: CRL-1596), Raji (ATCC: CCL-86), H9 (ATCC: HTB-176), Hut78 (ATCC: TIB-161), K562 (ATCC: CCL 243), HL-60 (ATCC: CCL 240), U-87MG (ATCC: HTB-14), HepG2 (ATCC: HB-8065), U-2 OS (ATCC: HTB-96), Saos-2 (ATCC: HTB-85), U937 (ATCC: CRL 1593), Hs 578T (ATCC: HTB 126), HBL-100 (ATCC: HTB 124), Molt-4 (ATCC: CRL 1582).
(§3) The assay is performed in 96 well tissue culture plates. The cells (range: 1.5*10^3-10^4) are seeded out in 80 μl complete medium 24 h prior to compound treatment. The test compounds are added in 20 μl complete medium containing max 5% DMSO. The final compound concentrations in the assays are 10 μM, 3 μM, 1 μM and 0.3 μM, respectively. The assay plates are incubated for 72 h at culture conditions. The MTS reagent is prepared according to the manufacturer's protocol (Promega G1111). 20 μl MTS reagent are added to each well, the assay plates are quickly spun and incubated for another 3 h at culture conditions. Subsequently, the plates are shortly shaked and absorption measured with a microplate-reader at 492 nm.

HeLa = assay: MTS proliferation assay, HeLa; type: cell-based, human; settings: 72 h incubation, read-out: MTS proliferation assay IC 50 HeLa
Description: as §1, §2, §3

MRC5 = assay: MTS proliferation assay, MRC5; type: cell-based; settings: MRC5, 72 h incubation; read-out: MTS proliferation assay IC 50 MRC5
Description: as §1, §3

[1] = test system: adherent cells or suspension cells; assay: Hoechst 33342 nuclear staining (fraction of apoptotic nuclei); type: cell-based; parameters: key: 0 relating to no activity; 1 relating to weak activity comprising less than 70% of the cells; score 2 relating to strong activity comprising more than 70% of the cells
Description: as §1
This assay is performed in 96 well tissue culture plates. Appropriate number of cells (adherent cells: 3-5*10^3, suspension cells: 8-10*10^3) are being seeded out in 80 μl complete medium. Adherent cells are incubated for 24 h for proper spreading out before addition of test compounds while suspension cells are immediately treated with test compounds after seeding out. The test compounds are added in 20 μl complete medium containing max 5% DMSO. […] After 24 h or 48 h incubation at culture conditions, 10 μl medium containing Hoechst 33342 dye (Sigma B-2261) at 2-5 μg/ml are added to each well. The assay plates are then further incubated for 30 minutes and subsequently analyzed with a standard inverted fluorescence microscope.
The readout allows the determination of the fraction of apoptotic nuclei as well as other morphological criteria specific for apoptosis as a function of the treatment. The following scores are used: 0 relating to no activity, 1 relating to weak activity comprising less than 70% of the cells and score 2 relating to strong activity comprising more than 70% of the cells.

With `Nc1nonc1-c1nc2ccccc2n1CC(=NO)c1ccc(-c2ccccc2)cc1` (mixture of isomers) [Example 27] the IC50 (Jurkat) was > 1000 nM, the IC50 (HeLa) was > 1000 nM and the IC50 (MRC5) was > 1000 nM. The “Hoechst 33342 nuclear staining score” value ([1]; H460, conc 0.01 μm) was 0, the “Hoechst 33342 nuclear staining score” value ([1]; H460, conc 0.1 μm) was 0 and the “Hoechst 33342 nuclear staining score” value ([1]; H460, conc 1 μm) was 0. For the same compound, the “Hoechst 33342 nuclear staining score” value ([1]; HeLa, conc 0.01 μm) was 0, the “Hoechst 33342 nuclear staining score” value ([1]; HeLa, conc 0.1 μm) was 0 and the “Hoechst 33342 nuclear staining score” value ([1]; HeLa, conc 1 μm) was 0. The “Hoechst 33342 nuclear staining score” value ([1]; Jurkat, conc 0.01 μm) was 0, the “Hoechst 33342 nuclear staining score” value ([1]; Jurkat, conc 0.1 μm) was 0 and the “Hoechst 33342 nuclear staining score” value ([1]; Jurkat, conc 1 μm) was 0. The “Hoechst 33342 nuclear staining score” value ([1]; MRC5, conc 0.01 μm) was 0, the “Hoechst 33342 nuclear staining score” value ([1]; MRC5, conc 0.1 μm) was 0 and the “Hoechst 33342 nuclear staining score” value ([1]; MRC5, conc 1 μm) was 0. For the same compound, the “Hoechst 33342 nuclear staining score” value ([1]; PBLs, conc 0.01 μm) was 0, the “Hoechst 33342 nuclear staining score” value ([1]; PBLs, conc 0.1 μm) was 0 and the “Hoechst 33342 nuclear staining score” value ([1]; PBLs, conc 1 μm) was 0.
With `Cc1cc2nc(-c3nonc3N)n(CC(=O)c3ccc(Br)cc3)c2cc1C` [Example 109] the IC50 (Jurkat) was 100 to 1000 nM, the IC50 (HeLa) was > 1000 nM and the IC50 (MRC5) was > 1000 nM. The “Hoechst 33342 nuclear staining score” value ([1]; H460, conc 0.01 μm) was 0, the “Hoechst 33342 nuclear staining score” value ([1]; H460, conc 0.1 μm) was 0 and the “Hoechst 33342 nuclear staining score” value ([1]; H460, conc 1 μm) was 0. The “Hoechst 33342 nuclear staining score” value ([1]; HeLa, conc 0.01 μm) was 0, the “Hoechst 33342 nuclear staining score” value ([1]; HeLa, conc 0.1 μm) was 0 and the “Hoechst 33342 nuclear staining score” value ([1]; HeLa, conc 1 μm) was 0. The “Hoechst 33342 nuclear staining score” value ([1]; Jily, conc 0.01 μm) was 0, the “Hoechst 33342 nuclear staining score” value ([1]; Jily, conc 0.1 μm) was 0 and the “Hoechst 33342 nuclear staining score” value ([1]; Jily, conc 1 μm) was 0. The “Hoechst 33342 nuclear staining score” value ([1]; Jurkat, conc 0.01 μm) was 0, the “Hoechst 33342 nuclear staining score” value ([1]; Jurkat, conc 0.1 μm) was 0 and the “Hoechst 33342 nuclear staining score” value ([1]; Jurkat, conc 1 μm) was 0. The “Hoechst 33342 nuclear staining score” value ([1]; MRC5, conc 0.01 μm) was 0, the “Hoechst 33342 nuclear staining score” value ([1]; MRC5, conc 0.1 μm) was 0 and the “Hoechst 33342 nuclear staining score” value ([1]; MRC5, conc 1 μm) was 0. The “Hoechst 33342 nuclear staining score” value ([1]; PBLs, conc 0.01 μm) was 0, the “Hoechst 33342 nuclear staining score” value ([1]; PBLs, conc 0.1 μm) was 0 and the “Hoechst 33342 nuclear staining score” value ([1]; PBLs, conc 1 μm) was 0.
In the case of `CON=C(Cn1c(-c2nonc2N)nc2ccccc21)c1ccc(Cl)cc1` (mixture of isomers) [Example 22], the IC50 (Jurkat) is reported as 100 to 1000 nM, the IC50 (HeLa) is reported as 100 to 1000 nM and the IC50 (MRC5) is reported as 100 to 1000 nM. For the same compound, the “Hoechst 33342 nuclear staining score” value ([1]; H460, conc 0.01 μm) was 0, the “Hoechst 33342 nuclear staining score” value ([1]; H460, conc 0.1 μm) was 0 and the “Hoechst 33342 nuclear staining score” value ([1]; H460, conc 1 μm) was 0. The “Hoechst 33342 nuclear staining score” value ([1]; HeLa, conc 0.01 μm) was 0, the “Hoechst 33342 nuclear staining score” value ([1]; HeLa, conc 0.1 μm) was 0 and the “Hoechst 33342 nuclear staining score” value ([1]; HeLa, conc 1 μm) was 2 (score 2 relating to strong activity comprising more than 70% of the cells). The “Hoechst 33342 nuclear staining score” value ([1]; Jurkat, conc 0.01 μm) was 0, the “Hoechst 33342 nuclear staining score” value ([1]; Jurkat, conc 0.1 μm) was 0 and the “Hoechst 33342 nuclear staining score” value ([1]; Jurkat, conc 1 μm) was 2 (score 2 relating to strong activity comprising more than 70% of the cells). For the same compound, the “Hoechst 33342 nuclear staining score” value ([1]; MRC5, conc 0.01 μm) was 0, the “Hoechst 33342 nuclear staining score” value ([1]; MRC5, conc 0.1 μm) was 0 and the “Hoechst 33342 nuclear staining score” value ([1]; MRC5, conc 1 μm) was 0. For the same compound, the “Hoechst 33342 nuclear staining score” value ([1]; PBLs, conc 0.01 μm) was 0, the “Hoechst 33342 nuclear staining score” value ([1]; PBLs, conc 0.1 μm) was 0 and the “Hoechst 33342 nuclear staining score” value ([1]; PBLs, conc 1 μm) was 0.
For `Nc1nonc1-c1nc2ccccc2n1CC(=O)c1ccccc1Cl` [Example 32], the IC50 (Jurkat) was 100 to 1000 nM, the IC50 (HeLa) was 100 to 1000 nM and the IC50 (MRC5) was > 1000 nM. The “Hoechst 33342 nuclear staining score” value ([1]; H460, conc 0.01 μm) was 0, the “Hoechst 33342 nuclear staining score” value ([1]; H460, conc 0.1 μm) was 0 and the “Hoechst 33342 nuclear staining score” value ([1]; H460, conc 1 μm) was 0. For the same compound, the “Hoechst 33342 nuclear staining score” value ([1]; HeLa, conc 0.01 μm) was 0, the “Hoechst 33342 nuclear staining score” value ([1]; HeLa, conc 0.1 μm) was 0 and the “Hoechst 33342 nuclear staining score” value ([1]; HeLa, conc 1 μm) was 0. For the same compound, the “Hoechst 33342 nuclear staining score” value ([1]; Jily, conc 0.01 μm) was 0, the “Hoechst 33342 nuclear staining score” value ([1]; Jily, conc 0.1 μm) was 0 and the “Hoechst 33342 nuclear staining score” value ([1]; Jily, conc 1 μm) was 0. The “Hoechst 33342 nuclear staining score” value ([1]; Jurkat, conc 0.01 μm) was 0, the “Hoechst 33342 nuclear staining score” value ([1]; Jurkat, conc 0.1 μm) was 0 and the “Hoechst 33342 nuclear staining score” value ([1]; Jurkat, conc 1 μm) was 2 (score 2 relating to strong activity comprising more than 70% of the cells). For the same compound, the “Hoechst 33342 nuclear staining score” value ([1]; MRC5, conc 0.01 μm) was 0, the “Hoechst 33342 nuclear staining score” value ([1]; MRC5, conc 0.1 μm) was 0 and the “Hoechst 33342 nuclear staining score” value ([1]; MRC5, conc 1 μm) was 0. For the same compound, the “Hoechst 33342 nuclear staining score” value ([1]; PBLs, conc 0.01 μm) was 0, the “Hoechst 33342 nuclear staining score” value ([1]; PBLs, conc 0.1 μm) was 0 and the “Hoechst 33342 nuclear staining score” value ([1]; PBLs, conc 1 μm) was 0.
